This passage reports IC50 results from patent publication US8735414B2 (priority 2009, dated 2014).

In general, IC50 refers to the concentration that inhibits the measured activity by half.

This test concerns bicistronic HCV replicon (replicon RNA, GenBank Accession No. AJ242654). In words: HCV Replicon Assay. In kind it is cell-based. The settings on record: Hepatitis C virus, 72 h, read-out: Replicon IC50. (A replicon is a self-replicating genome or part of one, used to study replication in cells.)

A value given as a limit tells only on which side of the number the result lay.

Regarding `Cc1ccc2c(C#N)c(-c3ccc(S(=O)(=O)N[C@@H](C)C4CC4)cn3)n(C3CCCC3)c2c1` [compound 426, 6-(3-cyano-1-cyclopentyl-6-methyl-1H-indol-2-yl)-N-[(1S)-1-cyclopropylethyl]pyridine-3-sulfonamide], the IC50 was less than 500 nM. For `C[C@H](NS(=O)(=O)c1ccc(-c2c(C#N)c3ccc(C4CC4)cc3n2C2CCCC2)nc1)C1CC1` [compound 433, 6-(3-cyano-1-cyclopentyl-6-cyclopropyl-1H-indol-2-yl)-N-[(1S)-1-cyclopropylethyl]pyridine-3-sulfonamide], the IC50 is less than 500 nM. As to `C[C@H](NS(=O)(=O)c1ccc(-c2c(C#N)c3cc(F)ccc3n2C2CCC2)nc1)C(F)(F)F` [compound 434, 6-(3-cyano-1-cyclobutyl-5-fluoro-1H-indol-2-yl)-N-[(2S)-1,1,1-trifluoropropan-2-yl]pyridine-3-sulfonamide], the IC50 is less than 500 nM. As for `C[C@H](NS(=O)(=O)c1ccc(-c2c(C#N)c3cc(F)ccc3n2C2CCCC2)nc1)C(F)(F)F` [compound 435, 6-(3-cyano-1-cyclopentyl-5-fluoro-1H-indol-2-yl)-N-[(2S)-1,1,1-trifluoropropan-2-yl]pyridine-3-sulfonamide], the IC50 is less than 500 nM. Take `Cc1ccc2c(C#N)c(-c3ccc(S(=O)(=O)N[C@@H](C)C(F)(F)F)cn3)n(-c3ccccc3)c2c1` [compound 440, 6-(3-cyano-6-methyl-1-phenyl-1H-indol-2-yl)-N-[(2S)-1,1,1-trifluoropropan-2-yl]pyridine-3-sulfonamide]: the IC50 was less than 500 nM. `C[C@H](NS(=O)(=O)c1ccc(-c2c(C#N)c3ccc(OC(F)(F)F)cc3n2C2CCCCC2)nc1)C(F)(F)F` [compound 459, 6-[3-cyano-1-cyclohexyl-6-(trifluoromethoxy)-1H-indol-2-yl]-N-[(2S)-1,1,1-trifluoropropan-2-yl]pyridine-3-sulfonamide]: the IC50 is less than 500 nM. Take `Cc1ccc2c(c1)c(C#N)c(-c1ccc(S(=O)(=O)N[C@H](C)C(F)(F)F)cn1)n2C1CCCC1` [compound 486, 6-(3-cyano-1-cyclopentyl-5-methyl-1H-indol-2-yl)-N-[(2R)-1,1,1-trifluoropropan-2-yl]pyridine-3-sulfonamide]: the IC50 was less than 500 nM. Consider `C[C@H](NS(=O)(=O)c1cnc(-c2c(C#N)c3ccc(F)cc3n2C2CCCC2)nc1)C1CC1` [compound 497, 2-(3-cyano-1-cyclopentyl-6-fluoro-1H-indol-2-yl)-N-[(1S)-1-cyclopropylethyl]pyrimidine-5-sulfonamide], for which the IC50 was less than 500 nM. On to `N#Cc1c(-c2ccc(S(=O)(=O)NC(CF)CF)cn2)n(C2CCCC2)c2ccc(C(F)F)cc12` [compound 535, 6-[3-cyano-1-cyclopentyl-5-(difluoromethyl)-1H-indol-2-yl]-N-(1,3-difluoropropan-2-yl)pyridine-3-sulfonamide], for which the IC50 was less than 500 nM. On to `C[C@H](NS(=O)(=O)c1ccc(-c2c(C#N)c3cc(F)c(OC(F)F)cc3n2C2CCC2)nc1)C(F)(F)F` [compound 549, 6-[3-cyano-1-cyclobutyl-6-(difluoromethoxy)-5-fluoro-1H-indol-2-yl]-N-[(2S)-1,1,1-trifluoropropan-2-yl]pyridine-3-sulfonamide], for which the IC50 is less than 500 nM. In the case of `N#Cc1c(-c2ccc(S(=O)(=O)NC(CF)CF)cn2)n(C2CCCC2)c2cc(O)c(F)cc12` [compound 575, 6-(3-cyano-1-cyclopentyl-5-fluoro-6-hydroxy-1H-indol-2-yl)-N-(1,3-difluoropropan-2-yl)pyridine-3-sulfonamide], the IC50 is less than 500 nM. For the compound `NC(=O)c1c(-c2ccc(S(=O)(=O)NC(CF)CF)cn2)n(C2CCC2)c2cc(C3CC3)ccc12` [compound 582, 1-cyclobutyl-6-cyclopropyl-2-{5-[(1,3-difluoropropan-2-yl)sulfamoyl]pyridin-2-yl}-1H-indole-3-carboxamide], the IC50 was less than 500 nM.
